Data published in patent US6897209B2, “Labelled factor XIIIa substrates” (GE Healthcare Limited, priority 1997, dated 2005).
One block for each molecule: values may come before it.

What was measured:
human plasma clots [1] = test: Incorporation into human plasma clots (in vitro plasma clot assay); assay type: biochemical; settings: control vials without thrombin and calcium chloride, 60 minutes
Experimental: (§1) Incorporation of radiolabelled substrates into fibrin was investigated by induction of an in vitro human plasma clot in the following manner. To a siliconised 5 ml glass vial was added, (a) 800 μl of Tris(hydroxymethyl)aminomethane buffered saline pH 7.5 containing calcium chloride (50 mM Tris, 150 mM sodium chloride, 4 mM calcium chloride.), (b) 40 μl of physiological salt solution containing 100 units of thrombin per ml, (c) 400 μl of human plasma containing the radiolabelled substrate at a concentration of typically 10 kBq/ml. To aid induction of clot a roughened glass rod was added to the reaction vial. Control vials were prepared similarly but with the omission of thrombin and calcium chloride.
(§2) The proportion of total radioactivity was calculated by counting in suitable detection apparatus.
(§3) The fraction of radioactivity retained on the filter, after subtraction of the non-specific binding determined from the control, is a measure of incorporation into the filtered clots.

[2] = system: clots induced in rat inferior vena cava; test: Incorporation into clots induced in a rat model (rat inferior vena cava model); assay type: in vivo; settings: rat IVC model; for Clot/Blood / Clot/Heart / Clot/Liver / Clot/Lung: 60 min; for % ID/g (clot uptake) / Relative conc (cpm/g of clot by dose/g animal): compound injected 5 min post-induction, clot removed after 60 min
Experimental: The rats (Male Wistar, 250-350 g) were anaesthetised with 15% urethane. After laparotomy, the vena cava was isolated and freed of surrounding fat tissue. […] The average weight of the clots formed in this model was around 27 mg, n=32, (5-50 mg range). The so compounds were injected 5 min post-induction. After 60 min the animals were sacrificed and the clot removed, weighed and counted. Other tissues e.g. blood, lung, heart, were also dissected and counted. The uptake of tracer into the clot was determined as the relative concentration (cpm/g of clot by dose/g animal ) and clot to background tissue.

human plasma clots [3] = molecular target: T1, human plasma clots (Homo sapiens, UniProt P00488); test: Incorporation into human plasma clots (in vitro plasma clot assay); assay type: biochemical; settings: for % specific uptake*: % retained with thrombin − % retained no thrombin; for % retained in plasma clot assay (with thrombin): human plasma with thrombin and calcium chloride, 60 minutes, ca. 20° C.
T1 construct: Factor XIII is transformed into its active form Factor XIIIa by thrombin in the presence of calcium ions; from tissue; host or cells: human plasma, clotted in vitro with thrombin and calcium chloride
T1 sequence (P00488 39-732): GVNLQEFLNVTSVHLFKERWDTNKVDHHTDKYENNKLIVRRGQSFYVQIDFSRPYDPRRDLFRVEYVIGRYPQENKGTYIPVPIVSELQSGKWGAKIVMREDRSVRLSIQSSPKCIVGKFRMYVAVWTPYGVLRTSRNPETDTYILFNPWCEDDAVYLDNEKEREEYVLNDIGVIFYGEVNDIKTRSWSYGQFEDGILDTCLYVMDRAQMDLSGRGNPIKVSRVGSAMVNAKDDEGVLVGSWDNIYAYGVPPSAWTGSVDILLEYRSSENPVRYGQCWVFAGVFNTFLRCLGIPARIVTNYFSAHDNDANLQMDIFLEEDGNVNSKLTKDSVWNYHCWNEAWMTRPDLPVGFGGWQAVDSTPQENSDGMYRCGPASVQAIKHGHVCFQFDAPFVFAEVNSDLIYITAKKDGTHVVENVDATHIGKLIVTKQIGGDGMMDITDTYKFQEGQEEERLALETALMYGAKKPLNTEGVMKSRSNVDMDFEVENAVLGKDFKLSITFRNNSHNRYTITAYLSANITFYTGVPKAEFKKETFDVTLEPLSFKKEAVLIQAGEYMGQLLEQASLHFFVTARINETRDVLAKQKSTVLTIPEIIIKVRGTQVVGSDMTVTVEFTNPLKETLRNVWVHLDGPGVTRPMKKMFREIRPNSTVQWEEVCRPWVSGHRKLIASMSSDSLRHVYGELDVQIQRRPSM
Experimental: as §1, §2, §3

Factor XIIIa = molecular target: T2, Factor XIIIa (Homo sapiens, UniProt P00488); test: Factor XIIIa dependency of incorporation (dimethylcasein uptake, normal vs Factor XIII deficient plasma); assay type: biochemical; settings: 1 KBq/ml, 60 minutes; uptake in normal plasma minus Factor XIII deficient plasma
T2 construct: Factor XIII is transformed into its active form Factor XIIIa by thrombin in the presence of calcium ions; from tissue; host or cells: human plasma
T2 sequence (P00488 39-732 limits assumed): T1 sequence (P00488 39-732)
Experimental: The assay was changed by replacing the mercaptoethanol with aprotinin at a final concentration of 2 μg/ml, and dimethylcasein (DMC) was used instead of casein.

[4] = Normal rat biodistribution; assay type: in vivo; settings: i.v., male Wistar rats, Mean±SD n=3
Experimental: The resolution of a clot image is dependant on the combination of rate of incorporation of the radiopharmaceutical and its blood/tissues clearance rate. For this reason the biodistribution of several compounds has been determined in rats. Male Wistar (100-150 g) rats were injected i.v. with 0.1-0.2 ml of radiolabelled tracer solution (8 MBq/ml) and dissected at different times post-injection. The % ID in each of the selected tissues was measured. Some animals were kept in metabolism cages to be able to determine the % ID excreted in urine and faeces. The dissection times used for the majority of the agents was 2, 15, 30, 60, 240 min. Data are shown as % ID, Mean±SD, (n=3).

Molecule: 1-(4-(N-(5-aminopentyl)-amidosulphonyl)benzyl)-1,4,8,11-tetraazacyclotetradecane [Compound 20]
% retained in plasma clot assay (no thrombin) (human plasma clots [1]): 0.6%

Molecule: 3,3,6,9,9-pentamethyl-6-N-[α-N-(4-N-(5-aminopentyl)amidosulphonyl)benzoyl)amino-polethyleneglycol)-ω-carbonyl]aminomethyl-4,8-diazaundecane-2,10-dione dioxime [Compound 14]
Clot/Blood [2]: 1.3
Clot/Heart [2]: 2.8
Clot/Liver [2]: 2.6
Clot/Lung [2]: 1.5
% ID/g (clot uptake) [2]: 0.18 ± 0.03 % ID/g
Relative conc (cpm/g of clot by dose/g animal) [2]: 0.54 ± 0.11
% specific uptake* (human plasma clots [3]): 27.8%
% retained in plasma clot assay (with thrombin) (human plasma clots [3]): 35%
% retained in plasma clot assay (no thrombin) (human plasma clots [1]): 7.2%

Molecule: CC(=NO)C(C)(C)NCC(C)(CN)CNC(C)(C)C(C)=NO (centres unmarked) [Compound 2, 6-aminomethyl-3,3,6,9,9-pentamethyl-4,8-diazaundecane-2, 1 0-dione dioxime]
% specific uptake* (human plasma clots [3]): 1.7%
% retained in plasma clot assay (with thrombin) (human plasma clots [3]): 2%
% retained in plasma clot assay (no thrombin) (human plasma clots [1]): 0.3%

Molecule: CC(=NO)C(C)(C)NCC(C)(CNC(=O)c1ccc(S(=O)(=O)NCCCCCN)cc1)CNC(C)(C)C(C)=NO (centres unmarked) [Compound 3, 3,3,6,9,9-pentamethyl-6-(4-(N-(5-aminopentyl)amidosulphonyl)benzamidomethyl)-4,8-diazaundecane-2,10-dione dioxime]
Clot/Blood [2]: 2
Clot/Heart [2]: 3.4
Clot/Liver [2]: 0.23
Clot/Lung [2]: 2.2
% ID/g (clot uptake) [2]: 0.10 ± 0.02 % ID/g
Relative conc (cpm/g of clot by dose/g animal) [2]: 0.37 ± 0.1
% specific DMC casein uptake (Factor XIIIa): 40%
% specific uptake* (human plasma clots [3]): 19%
% retained in plasma clot assay (with thrombin) (human plasma clots [3]): 22%
% retained in plasma clot assay (no thrombin) (human plasma clots [1]): 3.0%
% ID Blood ([4]; 2 min post-injection): 19.29 ± 1.7 % ID
% ID GI Tract ([4]; 2 min post-injection): 10.1 ± 1.2 % ID
% ID Heart ([4]; 2 min post-injection): 0.51 + 0.08 % ID
% ID Kidney ([4]; 2 min post-injection): 5.55 + 1 % ID
% ID Liver ([4]; 2 min post-injection): 19.34 ± 0.8 % ID
% ID Lung ([4]; 2 min post-injection): 1.43 ± 0.16 % ID
% ID Muscle ([4]; 2 min post-injection): 23.6 ± 0.9 % ID
% ID Urine ([4]; 2 min post-injection): 0.06 ± 0.02 % ID
% ID Blood ([4]; 15 min post-injection): 1.45 ± 0.38 % ID
% ID GI Tract ([4]; 15 min post-injection): 70 + 3.4 % ID
% ID Kidney ([4]; 15 min post-injection): 2.1 ± 0.8 % ID
% ID Liver ([4]; 15 min post-injection): 7.79 ± 1.16 % ID
% ID Lung ([4]; 15 min post-injection): 0.23 ± 0.12 % ID
% ID Muscle ([4]; 15 min post-injection): 4.87 ± 0.6 % ID
% ID Urine ([4]; 15 min post-injection): 5.01 ± 2.53 % ID
% ID Blood ([4]; 30 min post-injection): 0.59 ± 0.07 % ID
% ID GI Tract ([4]; 30 min post-injection): 76.5 ± 5.6 % ID
% ID Kidney ([4]; 30 min post-injection): 2.09 ± 1.87 % ID
% ID Liver ([4]; 30 min post-injection): 1.95 ± 0.35 % ID
% ID Lung ([4]; 30 min post-injection): 0.03 + 0.04 % ID
% ID Muscle ([4]; 30 min post-injection): 1.53 ± 0.71 % ID
% ID Urine ([4]; 30 min post-injection): 14.42 ± 3.78 % ID
% ID Blood ([4]; 60 min post-injection): 0.31 ± 0.02 % ID
% ID GI Tract ([4]; 60 min post-injection): 79.9 ± 2.9 % ID
% ID Kidney ([4]; 60 min post-injection): 0.57 ± 0.12 % ID
% ID Liver ([4]; 60 min post-injection): 1.54 ± 0.29 % ID
% ID Lung ([4]; 60 min post-injection): 0.07 ± 0.02 % ID
% ID Muscle ([4]; 60 min post-injection): 1.14 ± 0.48 % ID
% ID Urine ([4]; 60 min post-injection): 14.66 ± 2.83 % ID
% ID Blood ([4]; 240 min post-injection): 0.11 ± 0.07 % ID
% ID GI Tract ([4]; 240 min post-injection): 83.5 ± 2.2 % ID
% ID Kidney ([4]; 240 min post-injection): 0.45 ± 0.04 % ID
% ID Liver ([4]; 240 min post-injection): 1.35 ± 0.06 % ID
% ID Lung ([4]; 240 min post-injection): 0.14 + 0.24 % ID
% ID Muscle ([4]; 240 min post-injection): 0.8 ± 0.17 % ID
% ID Urine ([4]; 240 min post-injection): 12.31 ± 1.93 % ID

Molecule: CC(=NO)C(C)(C)NCC(C)(CNC(=O)[C@@H](Cc1ccccc1)NC(=O)CCCCCN)CNC(C)(C)C(C)=NO (stereo partly drawn) [Compound 5, 3,3,6,9,9-pentamethyl-6-N-[N-(6-aminohexanoyl)-D-phenylalanyl]aminomethyl-4,8-diazaundecane-2,10-dione dioxime]
% specific DMC casein uptake (Factor XIIIa): 10%
% specific uptake* (human plasma clots [3]): 4.1%
% retained in plasma clot assay (with thrombin) (human plasma clots [3]): 6%
% retained in plasma clot assay (no thrombin) (human plasma clots [1]): 1.9%

Molecule: CC(=O)SCC(=O)NCC(=O)NCC(=O)NCC(=O)NCCCNC(=O)c1ccc(S(=O)(=O)NCCCCCN)cc1 [Compound 23, N-[S-acetyl-mercaptoacatylglycylglycylglycyl)-N′-(4-N-(5-aminopentyl)amidosulphonyl)benzoyl propane-1,3-diamine]
% specific DMC casein uptake (Factor XIIIa): 24.5%
% specific uptake* (human plasma clots [3]): 14.2%
% retained in plasma clot assay (with thrombin) (human plasma clots [3]): 16%
% retained in plasma clot assay (no thrombin) (human plasma clots [1]): 0.8%

More lines, main results first:

% specific DMC casein uptake (Factor XIIIa): 13%
% specific uptake* (human plasma clots [3]): 1.5%
% retained in plasma clot assay (with thrombin) (human plasma clots [3]): 2%
Molecule: CC(=NO)C(C)(C)NCC(C)(CNC(=O)c1ccc(NC(=O)CCCCCN)cc1)CNC(C)(C)C(C)=NO (centres unmarked) [Compound 6, 3,3,6,9,9-pentamethyl-6-N-[4-N-(6aminohexanoyl)aminobenzoyl]aminomethyl-4,8-diazaundecane-2.10-dione dioxime]
% retained in plasma clot assay (no thrombin) (human plasma clots [1]): 0.5%

% specific DMC casein uptake (Factor XIIIa): 29%
% specific uptake* (human plasma clots [3]): 15.5%
% retained in plasma clot assay (with thrombin) (human plasma clots [3]): 20%
Molecule: CC(=NO)C(C)(C)NCC(C)(CNC(=O)c1ccc(S(=O)(=O)NCCSCCN)cc1)CNC(C)(C)C(C)=NO (centres unmarked) [Compound 9, 3,3,6,9,9-pentamethyl-6-(4-(N-[(S-aminoethyl)thioethyl]amidosulphonyl)benzamidomethyl)4,8-diazaundecane-2,10-dione dioxime]
% retained in plasma clot assay (no thrombin) (human plasma clots [1]): 4.5%

% specific DMC casein uptake (Factor XIIIa): 6%
% specific uptake* (human plasma clots [3]): 4.7%
% retained in plasma clot assay (with thrombin) (human plasma clots [3]): 5%
Molecule: CC(=NO)C(C)(C)NCC(C)(CNC(=O)[C@@H](CO)NC(=O)[C@@H](CO)NC(=O)[C@@H](CO)NC(=O)c1ccc(S(=O)(=O)NCCCCCN)cc1)CNC(C)(C)C(C)=NO (stereo partly drawn) [Compound 10, 3,3,6,9,9-pentamethyl-6-N-[N-(4-N-(5aminopentyl)amidosulphonyl)benzoyl-D-serine-D-serine-D-serine]aminomethyl-4,8-diazaundecane-2,10-dione dioxime]
% retained in plasma clot assay (no thrombin) (human plasma clots [1]): 0.3%

% specific DMC casein uptake (Factor XIIIa): 24%
% specific uptake* (human plasma clots [3]): 12.8%
% retained in plasma clot assay (with thrombin) (human plasma clots [3]): 16%
Molecule: CC(=NO)C(C)(C)NCC(C)(CNC(=O)N1CCN(CNC(=O)c2ccc(S(=O)(=O)NCCCCCN)cc2)CC1)CNC(C)(C)C(C)=NO (centres unmarked) [Compound 11, 3,3,6,9,9-pentamethyl-6-N-[4-N-{4-(N-(5-aminopentyl)amidosulphonyl)benzoyl}aminomethylpiperazinylcarbonyl]aminomethyl-4,8-diazaundecane-2,10-dione dioxime]
% retained in plasma clot assay (no thrombin) (human plasma clots [1]): 3.2%
